Experimental data: BindingDB's records for patent WO2022104348 (Janssen Pharmaceutica, 2022)

target: Mitogen-activated protein kinase kinase kinase 14 (Homo sapiens, UniProt Q99558); assay: Inhibition of auto-phosphorylation of recombinant human NF-kappaB-inducing kinase (NIK/MAP3K14) activity
Protocol: NIK/MAP3K14 auto-phosphorylation activity was measured using the AlphaScreen (ascreen) format (Perkin Elmer). All compound6 tested were dissolved in dimethyl sulfoxide (DMSO) and further dilutions were made in assay buffer. The final DMSO concentration was 0.7% (v/v) in assays. The assay buffer was 50 mM Tris pH 7.5 containing 1 mM EGTA (ethylene glycol tetraacetic acid), 1 mM DTT (dithiothreitol), 0.1 mM NasVCO4, 5 mM MgCE, and 0.01 % Tween 20. The assays were carried out in 384 well Proxiplates (Perkin Elmer). The incubations consisted of the compound, […] Adenosine-5'-triphosphate (ATP), and 1 nM NIK/MAP3K14. Incubations were initiated by the addition of GST-tagged NIK/MAP3K14 enzyme, carried out for 2 h at 25 °C and terminated by addition of stop buffer containing anti-phospho-IKK Ser176/180 antibody. Protein A Acceptor and Glutathione-Donor bead6 were added before reading using an EnVision Multilabel Plate Reader (Perkin Elmer). The signal obtained in the wells was normalized using high (full enzyme activity, 0.7% DMSO) and low controls (no enzyme activity, 0.7% DMSO, no ATP). IC50 s were determined by fitting a sigmoidal curve to % inhibition of control versus Log compound concentration.

Sequence of Mitogen-activated protein kinase kinase kinase 14 (Q99558 whole entry): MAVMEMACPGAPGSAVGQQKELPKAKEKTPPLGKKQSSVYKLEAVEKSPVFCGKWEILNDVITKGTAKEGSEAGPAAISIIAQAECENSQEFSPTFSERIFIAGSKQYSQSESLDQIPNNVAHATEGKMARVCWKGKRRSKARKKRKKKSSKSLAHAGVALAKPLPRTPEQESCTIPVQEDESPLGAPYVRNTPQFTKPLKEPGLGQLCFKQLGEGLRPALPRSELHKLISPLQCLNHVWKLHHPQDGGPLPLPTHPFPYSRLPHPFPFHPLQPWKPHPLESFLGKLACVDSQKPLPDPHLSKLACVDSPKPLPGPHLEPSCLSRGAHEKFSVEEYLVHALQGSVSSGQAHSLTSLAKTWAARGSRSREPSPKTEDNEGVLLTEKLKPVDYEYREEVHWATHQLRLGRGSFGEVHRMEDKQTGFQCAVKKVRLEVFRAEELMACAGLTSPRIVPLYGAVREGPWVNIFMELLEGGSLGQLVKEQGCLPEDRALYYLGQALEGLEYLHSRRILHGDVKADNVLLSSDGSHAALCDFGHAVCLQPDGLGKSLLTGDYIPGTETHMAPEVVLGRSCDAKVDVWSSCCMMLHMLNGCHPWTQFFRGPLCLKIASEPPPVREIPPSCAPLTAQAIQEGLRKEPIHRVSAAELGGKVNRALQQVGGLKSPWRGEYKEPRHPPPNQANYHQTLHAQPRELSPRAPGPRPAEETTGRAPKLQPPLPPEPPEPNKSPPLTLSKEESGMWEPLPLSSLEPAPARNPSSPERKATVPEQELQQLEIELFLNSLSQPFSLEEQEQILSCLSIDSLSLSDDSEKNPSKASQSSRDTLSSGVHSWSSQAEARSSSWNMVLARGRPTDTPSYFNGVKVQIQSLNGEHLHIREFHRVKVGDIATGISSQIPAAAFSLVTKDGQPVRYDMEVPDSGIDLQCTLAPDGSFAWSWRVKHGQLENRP

Compound	IC50 [nM]
O[C@]1(c2cccc(-c3csc(-c4c[nH]c5ncccc45)n3)c2)CCc2cccnc21 [WO2022104348, Example 1]	> 500
CN1CC[C@@](O)(c2cccc(-c3nc(-c4c[nH]c5ncccc45)sc3F)c2)C1=O [WO2022104348, Example 99]	< 100
CC1(C)Cc2cccnc2[C@]1(O)c1cccc(-c2csc(-c3c[nH]c4ncccc34)n2)c1 [WO2022104348, Example 36]	< 100
O[C@@]1(c2cccc(-c3csc(-c4c[nH]c5ncncc45)n3)c2)CCc2cccnc21 [WO2022104348, Example 5]	< 100
O[C@H]1C[C@@](O)(c2cccc(-c3csc(-c4c[nH]c5ncccc45)n3)c2)c2ncccc21 [WO2022104348, Example 103]	> 500
O[C@@]1(c2cccc(-c3csc(-c4c[nH]c5nnccc45)n3)c2)CCn2ccnc21 [WO2022104348, Example 88]	< 100
C[C@@](O)(c1cccc(-c2csc(-c3c[nH]c4ncccc34)n2)c1)c1ncc[nH]1 [WO2022104348, Example 80]	> 500
Cc1c(-c2c[nH]c3ncccc23)n[nH]c1-c1cccc([C@]2(O)CCN(C)C2=O)c1 [WO2022104348, Example 119]	> 500
CN1CC[C@@](O)(c2cccc(-c3csc(-c4c[nH]c5ncc(C(=O)O)cc45)n3)c2)C1=O [WO2022104348, Example 51]	< 100
O[C@@]1(c2cccc(-c3csc(-c4c[nH]c5ncccc45)n3)c2)COc2cccnc21 [WO2022104348, Example 85]	> 500
CN1CC[C@](O)(c2cccc(-c3cnc(-c4c[nH]c5ncccc45)s3)c2)C1=O [WO2022104348, Example 4]	> 500
O[C@]1(c2cccc(-c3csc(-c4c[nH]c5ncccc45)n3)c2)Cc2nccn2C1 [WO2022104348, Example 10]	< 100
O[C@@H]1C[C@](O)(c2cccc(-c3csc(-c4c[nH]c5ncccc45)n3)c2)c2ncccc21 [WO2022104348, Example 104]	> 500
CN1CC[C@@](O)(c2cccc(-c3csc(-c4c[nH]c5ncncc45)n3)c2)C1=O [WO2022104348, Example 53]	< 100
O[C@H]1C[C@](O)(c2cccc(-c3csc(-c4c[nH]c5ncccc45)n3)c2)c2ncccc21 [WO2022104348, Example 102]	> 500
CN1CC[C@@](O)(c2cccc(-n3cnc(-c4c[nH]c5ncccc45)n3)c2)C1=O [WO2022104348, Example 121]	< 100
CN1CC[C@@](O)(c2cccc(-c3csc(-c4c[nH]c5ncc(Cl)c(F)c45)n3)c2)C1=O [WO2022104348, Example 95]	< 100
CN1C[C@@](O)(c2cccc(-c3csc(-c4c[nH]c5nccnc45)n3)c2)C1=O [WO2022104348, Example 45]	> 500
O[C@@]1(c2cccc(-c3csc(-c4c[nH]c5ncc(C(F)(F)F)cc45)n3)c2)Cc2nccn2C1 [WO2022104348, Example 25]	< 100
CN1CC[C@@](O)(c2cccc(-c3coc(-c4c[nH]c5ncccc45)n3)c2)C1=O [WO2022104348, Example 116]	< 100
CC1(C)Cc2cccnc2[C@@]1(O)c1cccc(-c2csc(-c3c[nH]c4ncccc34)n2)c1 [WO2022104348, Example 35]	> 500
CN1CC[C@@](O)(c2cccc(-n3ccc(-c4c[nH]c5ncccc45)n3)c2)C1=O [WO2022104348, Example 122]	< 100
CN1CC[C@@](O)(c2cccc(-c3ccc(-c4c[nH]c5ncccc45)o3)c2)C1=O [WO2022104348, Example 114]	< 100
CN1CC[C@@](O)(c2cccc(-c3cnc(-c4c[nH]c5ncccc45)n3C)c2)C1=O [WO2022104348, Example 120]	> 500

Compound	IC50 [nM]
CN1CC[C@@](O)(c2cccc(-c3coc(-c4c[nH]c5ncccc45)c3)c2)C1=O [WO2022104348, Example 93]	< 100
O[C@@]1(c2cccc(-c3csc(-c4c[nH]c5ncccc45)n3)c2)CCc2scnc21 [WO2022104348, Example 32]	< 100
CN1CC[C@@](O)(c2cccc(-c3nc(-c4ccnc5[nH]ccc45)cs3)c2)C1=O [WO2022104348, Example 127]	< 100
O[C@]1(c2cccc(-c3csc(-c4c[nH]c5ncccc45)n3)c2)CCCn2ccnc21 [WO2022104348, Example 37]	> 500
O[C@@]1(c2cccc(-c3csc(-c4n[nH]c5cccnc45)n3)c2)CCn2ccnc21 [WO2022104348, Example 75]	≤ 500
O[C@@]1(c2cccc(-c3csc(-c4c[nH]c5ncccc45)n3)c2)CCCn2ccnc21 [WO2022104348, Example 38]	< 100
O[C@@]1(c2cccc(-c3csc(-c4c[nH]c5ncccc45)n3)c2)CCc2cccnc21 [WO2022104348, Example 2]	< 100
CN1CC[C@@](O)(c2cccc(-c3nc(-c4cccc5[nH]ncc45)cs3)c2)C1=O [WO2022104348, Example 131]	> 500
CN1CC[C@@](O)(c2cccc(-n3cnc(-c4c[nH]c5ncccc45)c3)c2)C1=O [WO2022104348, Example 124]	> 500
O[C@]1(c2cccc(-c3csc(-c4c[nH]c5nccnc45)n3)c2)OCc2cccnc21 [WO2022104348, Example 17]	< 100
O=C1N(CC(F)(F)F)CC[C@]1(O)c1cccc(-c2csc(-c3c[nH]c4nccnc34)n2)c1 [WO2022104348, Example 43]	> 500
C[C@@]1(O)C[C@](O)(c2cccc(-c3csc(-c4c[nH]c5ncccc45)n3)c2)c2ncccc21 [WO2022104348, Example 107]	> 500
CN1C(=O)[C@@](O)(c2cccc(-c3csc(-c4c[nH]c5ncccc45)n3)c2)c2ncccc21 [WO2022104348, Example 91]	> 500
Cc1ccc([C@]2(O)CCN(C)C2=O)cc1-c1csc(-c2c[nH]c3nccnc23)n1 [WO2022104348, Example 67]	< 100
CN1CC[C@@](O)(c2cccc(-c3nc(-c4c[nH]c5ncccc45)cs3)c2)C1=O [WO2022104348, Example 8]	< 100
Cc1noc2c1CC[C@@]2(O)c1cccc(-c2csc(-c3c[nH]c4ncccc34)n2)c1 [WO2022104348, Example 126]	< 100
CN1CC[C@@](O)(c2cccc(-c3csc(-n4ccc5nc(N)ccc54)n3)c2)C1=O [WO2022104348, Example 112]	> 500
CN1CC[C@](O)(c2cccc(-c3csc(-c4c[nH]c5ncccc45)n3)c2)C1=O [WO2022104348, Example 39]	> 500
Cc1ccnc2[nH]cc(-c3nc(-c4cccc([C@]5(O)CCn6ccnc65)c4)cs3)c12 [WO2022104348, Example 87]	< 100
CN1CC[C@@](O)(c2cccc(-c3nc(-c4c[nH]c5ncccc45)sc3C#N)c2)C1=O [WO2022104348, Example 98]	> 500
N#Cc1cnc2[nH]cc(-c3nc(-c4cccc([C@]5(O)Cc6nccn6C5)c4)cs3)c2c1 [WO2022104348, Example 26]	< 100
O=C1Nc2cccnc2[C@]1(O)c1cccc(-c2csc(-c3c[nH]c4ncccc34)n2)c1 [WO2022104348, Example 89]	> 500
O=C1N(CC(F)(F)F)CC[C@@]1(O)c1cccc(-c2csc(-c3c[nH]c4nccnc34)n2)c1 [WO2022104348, Example 44]	> 500
Cc1cnc2[nH]cc(-c3nc(-c4cccc([C@@]5(O)CCn6ccnc65)c4)cs3)c2n1 [WO2022104348, Example 81]	< 100
